Data taken from US9695155B2, “Herbicidal substituted pyrimidinyloxy benzene compounds” (E. I. DU PONT DE NEMOURS AND COMPANY, priority 2013, dated 2017).

Legend:
morningglory [1] = assay: Test A preemergence; format: in vivo, Ipomoea spp.
In short: (§1)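 Scoring: eye-based comparison with untreated controls, 0 for no effect through 100 for complete control, at about day 10. Treatments: directed soil spray preemergence; foliar spray postemergence on 2–10 cm plants at the one- to two-leaf stage. Medium: loam soil with sand.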

velvetleaf [2] = assay: Test A preemergence; format: in vivo, Abutilon theophrasti
In short: as §1

wheat [3] = assay: Test A preemergence; format: in vivo, Triticum aestivum
In short: as §1

morningglory [4] = assay: Test A postemergence; format: in vivo, Ipomoea spp.
In short: as §1

velvetleaf [5] = assay: Test A postemergence; format: in vivo, Abutilon theophrasti
In short: as §1

wheat [6] = assay: Test A postemergence; format: in vivo, Triticum aestivum
In short: as §1

sedge, umbrella = assay: Test B flooded paddy test; format: in vivo, Cyperus difformis; conditions: Flood, 250 g ai/ha, 0 to 100 scale where 0 is no effect and 100 is complete control
In short: (§2)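 Compound added straight to paddy water, with pots kept flooded 3 cm above soil, on plants grown to the 2-leaf stage. Visual scoring 0-100 (100 = complete control) against untreated controls after 13 to 15 greenhouse days.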

Heteranthera limosa = assay: Test B flooded paddy test; format: in vivo; conditions: Flood, 250 g ai/ha, 0 to 100 scale where 0 is no effect and 100 is complete control
In short: as §2

blackgrass = assay: Test C preemergence; format: in vivo, Alopecurus myosuroides
In short: (§3)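 Visual ratings on a 0–100 scale (100 = complete control) were made versus untreated controls after 13–15 greenhouse days. Chemicals in a surfactant-containing non-phytotoxic solvent were applied either preemergence to seeds in loam–sand soil or postemergence to 1- to 4-leaf plants 2–18 cm tall.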

Italian ryegrass = assay: Test C preemergence; format: in vivo, Lolium multiflorum
In short: as §3

wheat, winter = assay: Test C preemergence; format: in vivo, Triticum aestivum
In short: as §3

johnsongrass = assay: Test C preemergence; format: in vivo, Sorghum halepense
In short: as §3

ragweed = assay: Test C preemergence; format: in vivo, Ambrosia elatior
In short: as §3

velvetleaf [7] = assay: Test C preemergence; format: in vivo, Abutilon theophrasti
In short: as §3

[8] = 125 g ai/ha, 0 to 100 scale where 0 is no effect and 100 is complete control
[9] = 500 g ai/ha, 0 to 100 scale where 0 is no effect and 100 is complete control
[10] = 16 g ai/ha, preemergence, scale 0 to 100 (0 no effect, 100 complete control)
[11] = 62 g ai/ha, preemergence, scale 0 (no effect) to 100 (complete control)
[12] = 125 g ai/ha, preemergence, scale 0 (no effect) to 100 (complete control)
[13] = Preemergence, 31 g ai/ha, scale 0 to 100, 0 no effect, 100 complete control

FC(F)(F)c1cnn(-c2ccccc2Oc2ncc(Br)cn2)c1 [Compound 18, 5-bromo-2-[2-[4-(trifluoromethyl)-1H-pyrazol-1-yl]phenoxy]pyrimidine]
Plant response rating, Morningglory (morningglory [1]; [8]): 0
pest or weed control at 500 g/ha (morningglory [1]; Ipomoea, pre-emergence, 240 h, 500 g ai/ha, 0 to 100 scale, 0 no effect, 100 complete control, approx. 10 days, read-out: Morningglory plant response rating): 40%
Plant response rating, Velvetleaf (velvetleaf [2]; [8]): 90
pest or weed control at 500 g/ha (velvetleaf [2]; Abutilon theophrasti, pre-emergence, 240 h, 500 g ai/ha, 0 to 100 scale, 0 no effect, 100 complete control, approx. 10 days, read-out: Velvetleaf plant response rating): 90%
Plant response rating, Wheat (wheat [3]; [8]): 0
plant injury at 500 g/ha (wheat [3]; Triticum aestivum, pre-emergence, 240 h, 500 g ai/ha, 0 to 100 scale, 0 no effect, 100 complete control, approx. 10 days, read-out: Wheat plant response rating): 70%
pest or weed control at 125 g/ha (morningglory [4]; Ipomoea, post-emergence, 240 h, 125 g ai/ha, 0 to 100 scale where 0 is no effect and 100 is complete control, read-out: Plant response rating, Morningglory): 60%
pest or weed control at 500 g/ha (morningglory [4]; Ipomoea, post-emergence, 240 h, 500 g ai/ha, 0 to 100 scale, 0 no effect, 100 complete control, read-out: Plant response rating Morningglory): 100%
pest or weed control at 125 g/ha (velvetleaf [5]; Abutilon theophrasti, post-emergence, 240 h, 125 g ai/ha, 0 to 100 scale where 0 is no effect and 100 is complete control, read-out: Plant response rating, Velvetleaf): 100%
pest or weed control at 500 g/ha (velvetleaf [5]; Abutilon theophrasti, post-emergence, 240 h, 500 g ai/ha, 0 to 100 scale, 0 no effect, 100 complete control, read-out: Plant response rating Velvetleaf): 100%
plant injury at 125 g/ha (wheat [6]; Triticum aestivum, post-emergence, 240 h, 125 g ai/ha, 0 to 100 scale where 0 is no effect and 100 is complete control, read-out: Plant response rating, Wheat): 50%
plant injury at 500 g/ha (wheat [6]; Triticum aestivum, post-emergence, 240 h, 500 g ai/ha, 0 to 100 scale, 0 no effect, 100 complete control, read-out: Plant response rating Wheat): 50%
pest or weed control at 250 g/ha (sedge, umbrella; Cyperus difformis, read-out: Plant response rating, Sedge, Umbrella): 90%
pest or weed control at 250 g/ha (Heteranthera limosa; Heteranthera limosa, read-out: Plant response rating, Ducksalad): 90%
pest or weed control at 62 g/ha (blackgrass; Alopecurus myosuroides, pre-emergence, 62 g ai/ha, preemergence, scale 0 (no effect) to 100 (complete control), read-out: Blackgrass plant response rating): 80%
pest or weed control at 125 g/ha (blackgrass; Alopecurus myosuroides, pre-emergence, 125 g ai/ha, preemergence, scale 0 (no effect) to 100 (complete control), read-out: Blackgrass plant response rating): 90%
pest or weed control at 250 g/ha (blackgrass; Alopecurus myosuroides, pre-emergence, 250 g ai/ha, preemergence, scale 0 (no effect) to 100 (complete control), read-out: Blackgrass plant response rating): 90%
pest or weed control at 31 g/ha (blackgrass; Alopecurus myosuroides, pre-emergence, Preemergence, 31 g ai/ha, scale 0 to 100, 0 no effect, 100 complete control, read-out: Plant response rating, Blackgrass): 10%
pest or weed control at 62 g/ha (Italian ryegrass; Lolium multiflorum, pre-emergence, 62 g ai/ha, preemergence, scale 0 (no effect) to 100 (complete control), read-out: Ryegrass, Italian plant response rating): 5%
pest or weed control at 125 g/ha (Italian ryegrass; Lolium multiflorum, pre-emergence, 125 g ai/ha, preemergence, scale 0 (no effect) to 100 (complete control), read-out: Ryegrass, Italian plant response rating): 45%
pest or weed control at 250 g/ha (Italian ryegrass; Lolium multiflorum, pre-emergence, 250 g ai/ha, preemergence, scale 0 (no effect) to 100 (complete control), read-out: Ryegrass, Italian plant response rating): 85%
pest or weed control at 31 g/ha (Italian ryegrass; Lolium multiflorum, pre-emergence, Preemergence, 31 g ai/ha, scale 0 to 100, 0 no effect, 100 complete control, read-out: Plant response rating, Ryegrass, Italian): 0%
plant injury at 62 g/ha (wheat, winter; Triticum aestivum, pre-emergence, 62 g ai/ha, preemergence, scale 0 (no effect) to 100 (complete control), read-out: Wheat plant response rating): 5%
plant injury at 125 g/ha (wheat, winter; Triticum aestivum, pre-emergence, 125 g ai/ha, preemergence, scale 0 (no effect) to 100 (complete control), read-out: Wheat plant response rating): 35%
plant injury at 250 g/ha (wheat, winter; Triticum aestivum, pre-emergence, 250 g ai/ha, preemergence, scale 0 (no effect) to 100 (complete control), read-out: Wheat plant response rating): 35%
plant injury at 31 g/ha (wheat, winter; Triticum aestivum, pre-emergence, Preemergence, 31 g ai/ha, scale 0 to 100, 0 no effect, 100 complete control, read-out: Plant response rating, Wheat): 0%
pest or weed control at 62 g/ha (johnsongrass; Sorghum halepense, pre-emergence, 62 g ai/ha, preemergence, scale 0 (no effect) to 100 (complete control), read-out: Johnsongrass plant response rating): 30%
pest or weed control at 125 g/ha (johnsongrass; Sorghum halepense, pre-emergence, 125 g ai/ha, preemergence, scale 0 (no effect) to 100 (complete control), read-out: Johnsongrass plant response rating): 80%
pest or weed control at 250 g/ha (johnsongrass; Sorghum halepense, pre-emergence, 250 g ai/ha, preemergence, scale 0 (no effect) to 100 (complete control), read-out: Johnsongrass plant response rating): 98%
pest or weed control at 31 g/ha (johnsongrass; Sorghum halepense, pre-emergence, Preemergence, 31 g ai/ha, scale 0 to 100, 0 no effect, 100 complete control, read-out: Plant response rating, Johnsongrass): 30%
pest or weed control at 62 g/ha (ragweed; Ambrosia artemisiifolia, pre-emergence, 62 g ai/ha, preemergence, scale 0 (no effect) to 100 (complete control), read-out: Ragweed plant response rating): 0%
pest or weed control at 125 g/ha (ragweed; Ambrosia artemisiifolia, pre-emergence, 125 g ai/ha, preemergence, scale 0 (no effect) to 100 (complete control), read-out: Ragweed plant response rating): 10%
pest or weed control at 250 g/ha (ragweed; Ambrosia artemisiifolia, pre-emergence, 250 g ai/ha, preemergence, scale 0 (no effect) to 100 (complete control), read-out: Ragweed plant response rating): 30%
pest or weed control at 31 g/ha (ragweed; Ambrosia artemisiifolia, pre-emergence, Preemergence, 31 g ai/ha, scale 0 to 100, 0 no effect, 100 complete control, read-out: Plant response rating, Ragweed): 0%
pest or weed control at 62 g/ha (velvetleaf [7]; Abutilon theophrasti, pre-emergence, 62 g ai/ha, preemergence, scale 0 (no effect) to 100 (complete control), read-out: Velvetleaf plant response rating): 100%
pest or weed control at 125 g/ha (velvetleaf [7]; Abutilon theophrasti, pre-emergence, 125 g ai/ha, preemergence, scale 0 (no effect) to 100 (complete control), read-out: Velvetleaf plant response rating): 100%
pest or weed control at 250 g/ha (velvetleaf [7]; Abutilon theophrasti, pre-emergence, 250 g ai/ha, preemergence, scale 0 (no effect) to 100 (complete control), read-out: Velvetleaf plant response rating): 100%
pest or weed control at 31 g/ha (velvetleaf [7]; Abutilon theophrasti, pre-emergence, Preemergence, 31 g ai/ha, scale 0 to 100, 0 no effect, 100 complete control, read-out: Plant response rating, Velvetleaf): 60%

Fc1cnc(Oc2cccc(C(F)F)c2-n2cc(Br)cn2)nc1 [Compound 112]
Plant response rating, Morningglory (morningglory [1]; [8]): 80
Morningglory plant response rating (morningglory [1]; 500 g ai/ha, 0 to 100 scale, 0 no effect, 100 complete control, approx. 10 days): 90
Plant response rating, Velvetleaf (velvetleaf [2]; [8]): 90
Plant response rating, Wheat (wheat [3]; [8]): 0
Plant response rating, Morningglory (morningglory [4]; [9]): 100
Plant response rating, Velvetleaf (velvetleaf [5]; [9]): 100
Plant response rating, Wheat (wheat [6]; [9]): 70
Plant response rating, Sedge, Umbrella (sedge, umbrella): 85
Plant response rating, Ducksalad (Heteranthera limosa): 90
Blackgrass plant response rating (blackgrass; [10]): 0
Blackgrass plant response rating (blackgrass; [11]): 40
Blackgrass plant response rating (blackgrass; [12]): 95
Plant response rating, Blackgrass (blackgrass; [13]): 30
Ryegrass, Italian plant response rating (Italian ryegrass; [10]): 0
Ryegrass, Italian plant response rating (Italian ryegrass; [11]): 5
Ryegrass, Italian plant response rating (Italian ryegrass; [12]): 30
Plant response rating, Ryegrass, Italian (Italian ryegrass; [13]): 0
Wheat plant response rating (wheat, winter; [10]): 0
Wheat plant response rating (wheat, winter; [11]): 0
Wheat plant response rating (wheat, winter; [12]): 10
Plant response rating, Wheat (wheat, winter; [13]): 0
Johnsongrass plant response rating (johnsongrass; [10]): 0
Johnsongrass plant response rating (johnsongrass; [11]): 20
Johnsongrass plant response rating (johnsongrass; [12]): 40
Plant response rating, Johnsongrass (johnsongrass; [13]): 5
Ragweed plant response rating (ragweed; [10]): 0
Ragweed plant response rating (ragweed; [11]): 35
Ragweed plant response rating (ragweed; [12]): 100
Plant response rating, Ragweed (ragweed; [13]): 0
Velvetleaf plant response rating (velvetleaf [7]; [10]): 65
Velvetleaf plant response rating (velvetleaf [7]; [11]): 100
Velvetleaf plant response rating (velvetleaf [7]; [12]): 100
Plant response rating, Velvetleaf (velvetleaf [7]; [13]): 70

Fc1cccc(Oc2ncc(Cl)cn2)c1-n1cc(I)cn1 [Compound 179]
Morningglory plant response rating (0 to 100 scale) (morningglory [1]; 125 g ai/ha): 10
Morningglory plant response rating (morningglory [1]; [9]): 80
Velvetleaf plant response rating (0 to 100 scale) (velvetleaf [2]; 125 g ai/ha): 60
Velvetleaf plant response rating (velvetleaf [2]; [9]): 80
Wheat plant response rating (0 to 100 scale) (wheat [3]; 125 g ai/ha): 0
Wheat plant response rating (wheat [3]; [9]): 30
Morningglory plant response rating (morningglory [4]; [8]): 70
Plant response rating, Morningglory (morningglory [4]; [9]): 100
Velvetleaf plant response rating (velvetleaf [5]; [8]): 100
Plant response rating, Velvetleaf (velvetleaf [5]; [9]): 100
Wheat plant response rating (wheat [6]; [8]): 30
Plant response rating, Wheat (wheat [6]; [9]): 60
Plant response rating, Sedge, Umbrella (sedge, umbrella): 85
Plant response rating, Ducksalad (Heteranthera limosa): 80
Blackgrass plant response rating (blackgrass; [10]): 0
Blackgrass plant response rating (blackgrass; [11]): 40
Blackgrass plant response rating (blackgrass; [12]): 90
Plant response rating, Blackgrass (blackgrass; [13]): 50
Ryegrass, Italian plant response rating (Italian ryegrass; [10]): 0
Ryegrass, Italian plant response rating (Italian ryegrass; [11]): 30
Ryegrass, Italian plant response rating (Italian ryegrass; [12]): 70
Wheat plant response rating (wheat, winter; [10]): 0
Wheat plant response rating (wheat, winter; [11]): 0
Wheat plant response rating (wheat, winter; [12]): 5
Johnsongrass plant response rating (johnsongrass; [10]): 0
Johnsongrass plant response rating (johnsongrass; [11]): 65
Johnsongrass plant response rating (johnsongrass; [12]): 98
Ragweed plant response rating (ragweed; [10]): 0
Ragweed plant response rating (ragweed; [11]): 0
Ragweed plant response rating (ragweed; [12]): 10
Velvetleaf plant response rating (velvetleaf [7]; [10]): 60
Velvetleaf plant response rating (velvetleaf [7]; [11]): 98
Velvetleaf plant response rating (velvetleaf [7]; [12]): 100
